The text below walks through data of US10364222B2, “Cyclic amine derivative and medical use thereof” (Toray Industries, Inc., priority 2016, dated 2019).

The subject of experiment [1] is IL-17 production in mouse splenocytes. Put plainly: Suppressive effect on IL-17 production by IL-23 stimulation in mouse splenocytes. As to conditions: Splenocyte, 72 h, at 5 μmol/L of the test compound, 10 ng/mL human IL-23, 3 days, read-out: IL-17 production inhibition rate (%). The experiment is classed as cell-based. The method, boiled down:
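Splenocytes from male C57BL/6J mice (3×10^5/well, with 100 U/mL human IL-2) stimulated with 10 ng/mL human IL-23 plus compound (0.1% DMSO) for 3 days at 37 °C. Supernatant IL-17 measured by ELISA; inhibition calculated against unstimulated and IL-23-only wells.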

In experiment [2] the target is T1, ligand-binding domain of RORγ (RORγ-LBD) (Homo sapiens, UniProt P51449).
T1 construct: purchased Invitrogen
T1 sequence (P51449 269-508 limits assumed): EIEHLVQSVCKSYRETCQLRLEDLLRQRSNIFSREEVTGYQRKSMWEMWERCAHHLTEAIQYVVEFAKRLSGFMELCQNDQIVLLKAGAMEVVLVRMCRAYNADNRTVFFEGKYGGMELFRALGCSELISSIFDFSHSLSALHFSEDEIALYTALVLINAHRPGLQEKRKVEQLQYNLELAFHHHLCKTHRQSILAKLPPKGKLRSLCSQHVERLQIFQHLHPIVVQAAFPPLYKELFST
Put plainly: Inhibitory effect on RORγ-coactivator binding (LanthaScreen TR-FRET RORγ Coactivator Assay). As to conditions: at 33 μmol/L of the test compound; read-out: RORγ-coactivator binding inhibition rate (%). As to the method:
The inhibitory effect of the cyclic amine derivative (I) or a pharmacologically acceptable salt thereof on the binding between a ligand-binding domain of RORγ (hereinafter referred to as RORγ-LBD) and a coactivator was evaluated using Invitrogen's LanthaScreen™TR-FRET Retinoid-Related Orphan Receptor (ROR) gamma Coactivator Assay kit utilizing time-resolved fluorescence energy transfer (TR-FRET).
The test compound was dissolved in DMSO and diluted with TR-FRET Coregulator Buffer D (Invitrogen) containing 5 mmol/L of DTT to have a final DMSO concentration of 1% before use. To each well of a 384-well black plate (Corning Inc.), 4 nmol/L of GST-fused RORγ-LBD (Invitrogen) diluted with the buffer mentioned above and the test compound were added. A well without addition of the test compound and without addition of GST-fused RORγ-LBD (background) and a well without addition of the test compound and with addition of GST-fused RORγ-LBD (control) were prepared. Next, 150 nmol/L of fluorescein-labeled TRAP220/DRIP-2 (Invitrogen) diluted with the buffer mentioned above and 32 nmol/L of terbium-labeled anti-GST antibody (Invitrogen) were added to each well. After incubating the plate at room temperature for 16 to 24 hours, the fluorescence at 495 nm and 520 nm when excited at 320 nm was measured for each well and the ratio (fluorescence value at 520 nm/fluorescence value at 495 nm) was calculated.
The fold change with addition of the test compound (ratio with addition of the test compound/ratio of the background), the fold change of the control (ratio of the control/ratio of the background), and the fold change of the background (ratio of the background/ratio of the background) were calculated, and then the inhibition rate of binding between RORγ-LBD and a coactivator (hereinafter referred to as RORγ-coactivator binding inhibition rate) (%) was calculated from Formula 1: RORγ-coactivator binding inhibition rate(%)=(1−((Fold change with addition of the test compound)−(Fold change of the background))/((Fold change of the control)−(Fold change of the background)))×100 Formula 1

For orientation: inhibition means the drop in the measured response relative to a control, in per cent. Regarding `Cn1ccnc1CC(=O)N1CCCCC1C(=O)Nc1ccc(-c2ccccc2OC(F)(F)F)c(Cl)c1` (centres unmarked) [Example 50, N-(2-chloro-2′-(trifluoromethoxy)-[1,1′-biphenyl]-4-yl)-1-(2-(1-methyl-1H-imidazol-2-yl)acetyl)piperidine-2-carboxamide], the inhibition at 5 µM in experiment [1] worked out at 94.5%. Further, the inhibition at 33 µM in experiment [2] was 101%.
The matching figures for `CN(CC(=O)N1CCCCC1C(=O)Nc1ccc(-c2ccccc2OC(F)(F)F)c(F)c1)S(C)(=O)=O` (centres unmarked) [Example 51, N-(2-fluoro-2′-(trifluoromethoxy)-[1,1′-biphenyl]-4-yl)-1-(2-(N-methylmethylsulfonamide)acetyl)piperidine-2-carboxamide]: 98.6% and 100%.
On the same counts, the results for `O=C(Nc1ccc(-c2ccccc2OC(F)(F)F)c(Cl)c1)C1CCCCN1C(=O)Cn1ccnc1` (centres unmarked) [Example 52, 1-(2-(1H-imidazol-1-yl)acetyl)-N-(2-chloro-2′-(trifluoromethoxy)-[1,1′-biphenyl]-4-yl)piperidine-2-carboxamide] are 99.3% and 97.3%.
Take `O=C(Nc1ccc(-c2ccccc2OC(F)(F)F)c(Cl)c1)C1CCCCN1C(=O)Cn1cnnn1` (centres unmarked) [Example 53, 1-(2-(1H-tetrazol-1-yl)acetyl)-N-(2-chloro-2′-(trifluoromethoxy)-[1,1′-biphenyl]-4-yl)piperidine-2-carboxamide]: the inhibition at 5 µM in experiment [1] turned out to be 102%. Also, in experiment [2], the inhibition at 33 µM worked out at 105%.
For the compound `O=C(Nc1ccc(-c2ccccc2OC(F)(F)F)c(Cl)c1)C1CCCCN1C(=O)Cc1ccco1` (centres unmarked) [Example 54, 1-(2-(furan-2-yl)acetyl)-N-(2-chloro-2′-(trifluoromethoxy)-[1,1′-biphenyl]-4-yl)piperidine-2-carboxamide], the inhibition at 5 µM in experiment [1] turned out to be 98.7%. Also, the inhibition at 33 µM in experiment [2] turned out to be 102%.
On the same counts, the results for `Cc1cc(C)n(CC(=O)N2CCCCC2C(=O)Nc2ccc(-c3ccccc3OC(F)(F)F)c(Cl)c2)n1` (centres unmarked) [Example 55, 1-(2-(3,5-dimethyl-1H-pyrazol-1-yl)acetyl)-N-(2-chloro-2′-(trifluoromethoxy)-[1,1′-biphenyl]-4-yl)piperidine-2-carboxamide] are 99.7% and 104%.
The matching figures for `Cc1cc(CC(=O)N2CCCCC2C(=O)Nc2ccc(-c3ccccc3OC(F)(F)F)c(Cl)c2)on1` (centres unmarked) [Example 56, 1-(2-(3-methylisoxazol-5-yl)acetyl)-N-(2-chloro-2′-(trifluoromethoxy)-[1,1′-biphenyl]-4-yl)piperidine-2-carboxamide]: 107% and 104%.
The matching figures for `O=C(Nc1ccc(-c2ccccc2OC(F)(F)F)c(Cl)c1)[C@H]1CCCCN1C(=O)CCn1cnnn1` [Example 58, (R)-1-(3-(1H-tetrazol-1-yl)propanoyl)-N-(2-chloro-2′-(trifluoromethoxy)-[1,1′-biphenyl]-4-yl)piperidine-2-carboxamide]: 99.7% and 100%.
As for `O=C(Nc1ccc(-c2ccccc2OC(F)(F)F)c(Cl)c1)[C@H]1CCCCN1C(=O)CCn1ccnc1` [Example 59, (R)-1-(3-(1H-imidazol-1-yl)propanoyl)-N-(2-chloro-2′-(trifluoromethoxy)-[1,1′-biphenyl]-4-yl)piperidine-2-carboxamide], in experiment [1], the inhibition at 5 µM was 99.8%. In experiment [2], the inhibition at 33 µM worked out at 95.5%.
For the compound `Cc1ccn(CCC(=O)N2CCCC[C@@H]2C(=O)Nc2ccc(-c3ccccc3OC(F)(F)F)c(Cl)c2)n1` [Example 60, (R)-1-(3-(3-methyl-1H-pyrazol-1-yl)propanoyl)-N-(2-chloro-2′-(trifluoromethoxy)-[1,1′-biphenyl]-4-yl)piperidine-2-carboxamide], the inhibition at 5 µM in experiment [1] is 99.7%. Also, in experiment [2], the inhibition at 33 µM is 93.6%.
The matching figures for `O=C(Nc1ccc(-c2ccccc2OC(F)(F)F)c(Cl)c1)[C@H]1CCCCN1C(=O)Cn1cccn1` [Example 61, (R)-1-(2-(1H-pyrazol-1-yl)acetyl)-N-(2-chloro-2′-(trifluoromethoxy)-[1,1′-biphenyl]-4-yl)piperidine-2-carboxamide]: 98.8% and 102%.
On the same counts, the results for `O=C(Nc1ccc(-c2ccccc2OC(F)(F)F)c(Cl)c1)[C@H]1CCCCN1C(=O)Cn1ccnn1` [Example 64, (R)-1-(2-(1H-1,2,3-triazol-1-yl)acetyl)-N-(2-chloro-2′-(trifluoromethoxy)-[1,1′-biphenyl]-4-yl)piperidine-2-carboxamide] are 99.4% and 97.3%.
The matching figures for `O=C(Nc1ccc(-c2ccccc2OC(F)(F)F)c(Cl)c1)[C@H]1CCCCN1C(=O)Cn1ccnc1` [Example 65, (R)-1-(2-(1H-imidazol-1-yl)acetyl)-N-(2-chloro-2′-(trifluoromethoxy)-[1,1′-biphenyl]-4-yl)piperidine-2-carboxamide]: 99.6% and 91.7%.
As for `O=C(Nc1ccc(-c2ccccc2OC(F)(F)F)c(Cl)c1)[C@H]1CCCCN1C(=O)Cn1nccn1` [Example 66, (R)-1-(2-(2H-1,2,3-triazol-2-yl)acetyl)-N-(2-chloro-2′-(trifluoromethoxy)-[1,1′-biphenyl]-4-yl)piperidine-2-carboxamide], in experiment [1], the inhibition at 5 µM is 99.5%. Further, in experiment [2], the inhibition at 33 µM turned out to be 103%.
The matching figures for `Cc1nnc(CC(=O)N2CCCC[C@@H]2C(=O)Nc2ccc(-c3ccccc3OC(F)(F)F)c(Cl)c2)o1` [Example 67, (R)-N-(2-chloro-2′-(trifluoromethoxy)-[1,1′-biphenyl]-4-yl)-1-(2-(5-methyl-1,3,4-oxadiazol-2-yl)acetyl)piperidine-2-carboxamide]: 98.7% and 99.1%.
On the same counts, the results for `COC(=O)CCCC(=O)N1CCCC[C@@H]1C(=O)Nc1ccc(-c2ccccc2OC(F)(F)F)c(Cl)c1` [Example 69, methyl (R)-5-(2-((2-chloro-2′-(trifluoromethoxy)-[1,1′-biphenyl]-4-yl)carbamoyl)piperidin-1-yl)-5-oxopentanoate] are 99.5% and 95.9%.
